Measured values: patent US11103509B2 (University of Kentucky Research Foundation, priority 2018, dated 2021)
Like-named read-outs stand apart in the source and are kept apart here.

Experiments:
human mPGES-1 = target: T1, human mPGES-1 (Homo sapiens, UniProt O14684); assay: in vitro inhibitory activity against human mPGES-1 (PGE2 enzyme immunoassay); assay type: biochemical; details: for inhibition at 10 µM: read-out: Inhibition (%) at 10 μM
T1 construct: made in house
T1 sequence (O14684 1-152): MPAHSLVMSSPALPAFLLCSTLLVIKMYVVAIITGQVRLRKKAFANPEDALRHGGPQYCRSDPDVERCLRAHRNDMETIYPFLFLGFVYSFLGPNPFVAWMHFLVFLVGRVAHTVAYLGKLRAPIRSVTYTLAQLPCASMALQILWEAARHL
Experimental: The above computational predictions were followed by in vitro activity assays for their actual inhibitory activity against human mPGES-1 using an ELISA assay previously-described.^16-17, 19 Specifically, a total of 18 FDA-approved drugs were assayed for their inhibitory activity against human mPGES-1.
The protocol for the protein preparation and in vitro activity assays were the same as described previously.^69-72 The enzyme activity assays were performed on ice in 1.5 ml microfuge tubes by using the expressed human mPGES-1. The reaction mixture contained: 0.2 M Na2HPO4/NaH2PO4, pH 7.2, 10 μL; 0.1 M GSH, 2.5 μL; diluted microsomal enzyme (80 μg/mL), 1 μL; PGH2 (0.31 mM in DMF), 5 μL; 1 μL inhibitor; and H2O in a final reaction volume of 100 μL. PGH2 was stored in dry ice and used to initiate the reaction. Compounds were incubated with the enzyme for 15 min at room temperature before the addition of cold PGH2 (1 μM final) to initiate the enzyme reaction. After 30 s, 10 μL of SnCl2 (40 mg/mL) in ethanol was added to stop the reaction. The non-enzymatic conversion of PGH2 to PGE2 was performed in the same buffer devoid of enzyme. The reaction mixture was placed on ice until PGE2 production was determined by the PGE2 enzyme immunoassay as described earlier. IC50 values of the inhibitors were calculated by using the GraphPad Prism 6.0.

pain in cancer patients [1] = details: cited from earlier work
pain in cancer patients [2] = assay: clinical data mining: pain complaints in afatinib Phase III clinical trial NCT00656136; assay type: in vivo, human
Experimental: To address this question, data from phase III clinical trial (NCT00656136) was also analyzed for drug afatinib, another EGFR and HER2 dual inhibitor approved by the FDA in 2013.

[3] = 10 μM, single-concentration screening
[4] = NCT00656136, with drug total 390
[5] = NCT00656136, may include multiple types of pain from each patient

Row | Compound | inhibition at 10 µM (human mPGES-1; [3]) [%] | IC50 (human mPGES-1) [µM] | other results
1 | C=C1/C(=C\C=C2/CCC[C@]3(C)[C@@H]([C@H](C)/C=C/[C@@H](O)C4CC4)CC[C@@H]23)C[C@@H](O)C[C@@H]1O [Calcipotriene] | 68 | 3 ± 1.1 | 
2 | C[C@]12CC[C@@H]3c4ccc(OC(=O)N(CCCl)CCCl)cc4CC[C@H]3[C@@H]1CC[C@@H]2OP(=O)(O)O [Estramustine Phosphate] |  |  | inhibition at 10 µM (human mPGES-1): 36%
3 | COc1cc(C)c(/C=C/C(C)=C/C=C/C(C)=C/C(=O)O)c(C)c1C [Acitretin] | 83 | 3.5 ± 1.6 | 
4 | COc1cc2nc(N(C)CCCNC(=O)C3CCCO3)nc(N)c2cc1OC (centres unmarked) [Alfuzosin] | 22 |  | 
5 | CC1(C)S[C@@H]2[C@H](NC(=O)COc3ccccc3)C(=O)N2[C@H]1C(=O)[O-].[K+] [Penicillin V Potassium] |  |  | Inhibition (%) at 10 μM (human mPGES-1; [3]): 36%
6 | CC(C)(C)C(=O)OCOP(=O)(COCCn1cnc2c(N)ncnc21)OCOC(=O)C(C)(C)C [Adefovir Dipivoxil] | 19 |  | 
7 | C[C@H]1[C@H](NC(=O)/C(=N\OC(C)(C)C(=O)O)c2csc(N)n2)C(=O)N1S(=O)(=O)O [Aztreonam] | 53 | 11.4 ± 1.1 | 
8 | CCCCC[C@H](O)/C=C/[C@H]1[C@H](O)CC(=O)[C@@H]1CCCCCCC(=O)O [Alprostadil] | 11 |  | 
9 | CN(C)C/C=C/C(=O)Nc1cc2c(Nc3ccc(F)c(Cl)c3)ncnc2cc1O[C@H]1CCOC1 [afatinib] |  |  | Back Pain, With drug pains (pain in cancer patients [1]; [4]): 29; Headache, With drug pains (pain in cancer patients [1]; [4]): 21; Pain In Extremity, With drug pains (pain in cancer patients [1]; [4]): 27; Pain-throat/pharynx/larynx, With drug pains (pain in cancer patients [1]; [4]): 27; # of patients complaining pain/# of patients given afatinib, Counts: Back Pain (pain in cancer patients [1]; NCT00656136): 29/390; # of patients complaining pain/# of patients given afatinib, Counts: Headache (pain in cancer patients [1]; NCT00656136): 21/390; # of patients complaining pain/# of patients given afatinib, Counts: Pain - chest/thorax (pain in cancer patients [1]; NCT00656136): 27/390; # of patients complaining pain/# of patients given afatinib, Counts: Pain in Extremity (pain in cancer patients [1]; NCT00656136): 27/390; patients complaining pain, Percentage(%): Back Pain (pain in cancer patients [1]; NCT00656136): 7.43%; patients complaining pain, Percentage(%): Headache (pain in cancer patients [1]; NCT00656136): 5.38%; patients complaining pain, Percentage(%): Pain - chest/thorax (pain in cancer patients [1]; NCT00656136): 6.92%; patients complaining pain, Percentage(%): Pain in Extremity (pain in cancer patients [1]; NCT00656136): 6.92%; analgesic effect (in words) (pain in cancer patients [2]; NCT00656136, compared to placebo): no analgesic effects at all; # of patients complaining pain/# of patients given afatinib, Counts: Total pain occurrence (pain in cancer patients [2]; [5]): 104/390; patients complaining pain, Percentage(%): Total pain occurrence (pain in cancer patients [2]; [5]): 26.67%

Continued, in another order:

Row | inhibition at 10 µM (human mPGES-1; [3]) [%] | IC50 (human mPGES-1) [µM] | Compound | other results
10 | 4 |  | CCCCC[C@H](O)/C=C/[C@H]1[C@H](O)CC(=O)[C@@H]1C/C=C\CCCC(=O)O [Dinoprostone] | 
11 | 44 |  | C[C@]12C=CC(=O)C=C1CC[C@@H]1[C@@H]2[C@@H](O)C[C@@]2(C)[C@H]1CC[C@]2(O)C(=O)CO [Prednisolone] | 
12 | 54 | 9 ± 2.3 | CCOC(=O)[C@H](CCc1ccccc1)N[C@@H](C)C(=O)N1[C@H](C(=O)O)C[C@H]2CCCC[C@@H]21 [Trandolapril] | 
13 | 47 | 29.7 ± 6.3 | COCC1=C(C(=O)OC(C)OC(=O)OC(C)C)N2C(=O)[C@@H](NC(=O)/C(=N\OC)c3csc(N)n3)[C@H]2SC1 (some centres unmarked) [Cefpodoxime Proxetil] | 
14 | 36 |  | OCCN(CCO)c1nc(N2CCCCC2)c2nc(N(CCO)CCO)nc(N3CCCCC3)c2n1 [Dipyridamole] | 
15 | 52 | 10.2 ± 2.5 | Cc1ccccc1C(=O)Nc1ccc(C(=O)N2CCCC(O)c3cc(Cl)ccc32)c(C)c1 (centres unmarked) [Tolvaptan] | 
16 | 21 |  | COc1cc2nc(N3CCN(C(=O)C4COc5ccccc5O4)CC3)nc(N)c2cc1OC (centres unmarked) [Doxazosin] | 
17 |  | 13.5 ± 4 | CO[C@@]1(NC(=O)C2SC(=C(C(N)=O)C(=O)[O-])S2)C(=O)N2C(C(=O)[O-])=C(CSc3nnnn3C)CS[C@@H]21.[Na+].[Na+] (some centres unmarked) [Cefotetan Disodium] | Inhibition (%) at 10 μM (human mPGES-1; [3]): 44%
18 | 99 |  | CS(=O)(=O)CCNCc1ccc(-c2ccc3ncnc(Nc4ccc(OCc5cccc(F)c5)c(Cl)c4)c3c2)o1 [Lapatinib Ditosylate] | 
19 | 57 | 7.2 ± 2.4 | CO/N=C(\C(=O)N[C@@H]1C(=O)N2C(C(=O)O)=C(CSc3nc(=O)c(=O)[nH]n3C)CS[C@H]12)c1csc(N)n1 [Ceftriaxone] | 
